PubChem BioAssay (NCI)
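Method: 48-hour compound exposure of cells in 96-well plates, five concentrations, linear interpolation of endpoints. Here, GI50 denotes the concentration required for 50% inhibition of growth. TGI marks complete inhibition of growth.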

Assays:
Assay in all cases: NCI-60 cell line screen, 48 h
786-0 renal = system: 786-0 renal
ACHN renal = system: ACHN renal
HCC-2998 colon = system: HCC-2998 colon
HOP-62 NSCLC = system: HOP-62 NSCLC
HOP-92 NSCLC = system: HOP-92 NSCLC
M14 melanoma = system: M14 melanoma
MDA-MB-435 = system: MDA-MB-435
SF-295 CNS = system: SF-295 CNS
SF-539 CNS = system: SF-539 CNS
SNB-19 CNS = system: SNB-19 CNS

SMILES | GI50 (786-0 renal) [nM] | TGI (786-0 renal) [µM] | GI50 (ACHN renal) [µM] | TGI (ACHN renal) [µM] | GI50 (HCC-2998 colon) [nM] | TGI (HCC-2998 colon) [µM] | GI50 (HOP-62 NSCLC) [µM] | TGI (HOP-62 NSCLC) [µM] | GI50 (HOP-92 NSCLC) [µM] | TGI (HOP-92 NSCLC) [µM] | GI50 (M14 melanoma) [nM] | TGI (M14 melanoma) [µM] | GI50 (MDA-MB-435) [nM] | TGI (MDA-MB-435) [µM] | GI50 (SF-295 CNS) [nM] | TGI (SF-295 CNS) [µM] | GI50 (SF-539 CNS) [nM] | TGI (SF-539 CNS) [µM] | GI50 (SNB-19 CNS) [µM] | TGI (SNB-19 CNS) [µM]
OC(c1cc(-c2cccc(Cl)c2)nc2ccccc12)C1CCCCN1 (configuration not stated) | 1840 | 3.47 | 1.64 | 3.13 | 2090 | 4.15 | 1.78 | 3.32 | 1.12 | 2.51 | 1910 | 3.74 | 1630 | 3.15 | 1590 | 3.22 | 1930 | 3.61 | 1.95 | 3.95
Cc1cc(Cl)cc2c(N=Nc3ccc(S(N)(=O)=O)cc3)c(O)[nH]c12 | > 25000 | > 25 | > 25 | > 25 | > 25000 | > 25 | > 25 | > 25 | > 25 | > 25 | > 25000 | > 25 | > 25000 | > 25 | > 25000 | > 25 | > 25000 | > 25 | > 25 | > 25
CSC1=Nc2c(c(C)c(-c3ccccc3)n2CCCN2CCCCC2)C2=NC(=O)C[C@H](C)N12 | 4480 | 36.5 | 4.78 | 43.8 | 3180 | 12.7 | 3.11 | 15.8 | 4.1 | 48.9 | 3680 | 16.1 | 2970 | 10.8 | 2540 | 9.19 | 6070 | 70.4 | 3.08 | > 94.6
COc1cc2nccc(Oc3ccc(NC(=O)NC4CC4)c(Cl)c3)c2cc1C(N)=O | 13400 | 37.7 | 9.17 | > 100 | > 100000 | > 100 | 21.4 | 61.5 | 7.06 | 38.3 | 51000 | > 100 | > 100000 | > 100 | 23400 | > 85.7 | 536 | 40 | 17.7 | 62.1
NS(=O)(=O)OCC1OC(n2cnc3cncnc32)C(O)C1O (configuration not stated) | 22.8 | 0.0693 | 0.0288 | 0.0945 | 31.2 | 0.097 | < 0.01 | 0.0143 | 0.0183 | 0.0619 | 30 | 0.0944 | 28.4 | 0.0845 | 27.9 | 0.12 | 20.6 | 0.0467 | 0.0126 | 0.0685
CN1CCC(COc2cnc(-c3cccc(Cn4nc(-c5cccc(C#N)c5)ccc4=O)c3)nc2)CC1 | 1970 | 3.86 | 2.38 | 5.78 | 6340 | 18.7 | 4.24 | 14.2 | 1.02 | 12.6 | 1960 | 3.64 | 2740 | 9.47 | 771 | 16.5 | 1700 | 3.3 | 4.45 | 25.7
CC[C@@H]1[C@@H](C)O[C@@](O)([C@@H](C)[C@H](O)[C@H](C)[C@H]2OC(=O)/C=C/C=C/[C@H](C)[C@@H]([C@@H](C)[C@@H](O)[C@H](C)[C@@]3(O)C[C@@H](O[C@H]4C[C@@H](O)[C@H](O)C(C)O4)[C@H](CC)[C@@H](C)O3)OC(=O)/C=C/C=C/[C@@H]2C)C[C@H]1O[C@@H]1C[C@@H](O)[C@H](O)C(C)O1 (some centres not stated) | 125 | 0.464 | 0.111 | 0.411 | 97 | 0.262 | 0.073 | 0.171 | 0.0381 | 0.125 | 65.3 | 0.142 | 86.7 | 0.261 | 61 | 0.132 | 70.8 | 0.182 | 0.0731 | 0.212
Cn1cc(C2=C(c3ccccc3[N+](=O)[O-])C(=O)NC2=O)c2ccccc21 | 3200 | > 25 | 1.65 | > 23.4 | 7790 | > 23.7 | 5.35 | > 23.3 | 6.08 | 16.6 | 6320 | > 20.9 | 4820 | > 25 | 1440 | > 25 | 2610 | 10.1 | 6.88 | > 25
Nc1c(C(=O)c2ccc(-c3cccnc3)cc2)cnn1-c1ccc(F)cc1 | > 18400 | > 25 | > 10.9 | > 16 | > 25000 | > 25 | > 18.7 | > 25 | > 25 | > 25 | > 25000 | > 25 | > 25000 | > 25 | > 25000 | > 25 | > 16700 | > 25 | > 25 | > 25
Cc1cccc(-c2[nH]ncc2-c2ccc3ncccc3n2)n1 | 11100 | > 25 | 7.1 | > 25 | > 25000 | > 25 | 9.59 | > 25 | 10 | > 25 | 10800 | > 25 | 15400 | > 25 | 13700 | > 25 | 17400 | > 25 | 13.2 | > 25
C=CCC(N[C@@H](CO)c1ccccc1)c1cn(Cc2ccccc2Cl)c(=O)n(Cc2ccccc2Cl)c1=O (some centres not stated) | > 100000 | > 100 | > 100 | > 100 | > 100000 | > 100 | > 100 | > 100 | > 100 | > 100 | > 100000 | > 100 | > 100000 | > 100 | > 100000 | > 100 | > 100000 | > 100 | > 100 | > 100
CN(C)c1ccc(/C=C/c2ccnc3c(O)cccc23)cc1 | 886 | > 26.2 | 0.337 | > 100 | 2090 | > 100 | 0.469 | > 58.9 | 0.211 |  | 304 | 1.58 | 455 | > 100 | 1060 | > 100 | 344 | 3.33 | 0.395 | > 100
O=C(O)/C=C/C(=O)N1Cc2cc3ccccc3nc2C1 |  | > 100 |  | > 100 |  | > 100 |  | > 100 |  | > 100 |  | > 100 |  | > 100 |  | > 100 |  | > 100 |  | > 100
C=C(C)[C@@H]1CC[C@]2(COCCC#N)CC[C@]3(C)[C@H](CC[C@@H]4[C@@](C)(CCCNCCC#N)[C@H](C(=C)C)CC[C@]43C)[C@@H]12 | 10600 | 30.1 | 13.2 | > 50 | 9080 | 20.1 | 49.7 | > 50 | 7.03 | 28.5 | 14700 | > 50 | 12700 | 34.5 | > 50000 | > 50 | 9780 | 20.4 | 26.4 | > 50
Cc1ccc(Cl)cc1Nc1nc(C(F)(F)F)ccc1C(=O)N/N=C/c1cccnc1 | 2110 | 11.4 | 3.63 | 13.1 | 2030 | 11.1 | 4.28 | 18.5 | 1.55 | 7.37 | 1440 | 3.92 | 3990 | 15.7 | 1380 | 4.51 | 2450 | 10 | 3.37 | 14.4
CCOC(=O)c1ccccc1OC(=O)NNc1ccccc1 | 1180 | > 100 | 0.587 | > 100 | 583 |  | > 84.2 | > 100 | 6.92 | > 100 |  | > 100 | 531 | > 100 | 333 | > 37.4 | 312 | 1.33 | > 51.6 | > 100
C[n+]1c(/C=C/c2c[nH]c3ccccc23)ccc2ccccc21 | 14200 | 30.3 | 10.1 | 47.8 | 10500 | 23.8 | 12.8 | 31.8 |  |  | 14000 | 33.2 | 7950 | 20.6 | 6930 | 20.5 | 12700 | 27.3 | 11.3 | 35.1
NC1=CC(=O)c2cccnc2C1=O | 1780 | 3.75 | 1.29 | 2.75 | 5820 | 19.8 | 1.32 | 2.77 | 1.71 | 3.39 | 1700 | 3.24 | 833 | 2.12 | 1620 | 3.1 | 1620 | 3 | 1.84 | 3.88
COc1ccc2sc3cccc(NCCN(C)C)c3c(=O)c2c1 | 3140 | 14.5 | 2.4 | 6.92 | 1830 | 3.39 | 3.57 | 10.7 |  |  | 2000 | 4.1 | 2030 | 5.07 | 4610 | 17.5 | 3520 | 13.3 | 2.78 | 14.1
CCN(CC)CCNc1ccc(C)c2sc3cc(Cl)ccc3c(=O)c12 | 1660 | 3.1 |  |  | 1750 | 3.58 | 1.44 | 2.9 | 0.665 | 2.24 | 1800 | 3.4 | 1700 | 3.14 | 1670 | 3.16 | 1600 | 3 | 1.74 | 3.51
O=C(/C=C/c1ccco1)c1cc(F)c(Cl)cc1Cl | 22300 | 55.4 | 20.1 | 45.1 |  |  | 19.2 | 39.1 | 18.1 | 39.6 | 19500 | 38.4 | 32200 | > 100 | 24300 | 65.9 | 20000 | 38.1 | 20 | 48.4
Nc1cc(F)ccc1CC(=O)O |  | > 100 |  | > 100 |  | > 100 |  | > 100 |  |  |  | > 100 |  | > 100 |  | > 100 |  | > 100 |  | > 100
O=C1/C(=C\c2ccc(F)cc2)CN(C(=O)c2ccccc2)C/C1=C\c1ccc(F)cc1 | 1830 | 4.25 | 1.75 | 3.77 | 2620 | 6.98 | 3.07 | 8.5 | 1.48 | 9.1 | 2050 | 4.65 | 2110 | 5.65 |  |  | 2560 | 7.58 | 5.05 | 20.8
O=C(COc1ccc(/C=C2\COc3ccccc3C2=O)cc1)Nc1nccs1 | 13900 | 28.1 | 16.6 | 42.3 | 828 | 3.26 | 16.8 | 33.1 |  |  | 6710 | 20 | 3560 | 18.4 | 3100 | 12.8 | 15000 | 29.4 | 12.8 | 25.4
CCOC(=O)C1=C(C)N=c2s/c(=C\c3ccccc3O)c(=O)n2C1c1ccc(OC)c2ccccc12 (configuration not stated) | 2590 | 10.3 | 3.03 | 8.87 | 8430 | 58.1 | 4.65 | 14.6 | 16.3 | 35.9 |  |  | 13100 | > 100 | 13300 | 30 | 1760 | 3.67 | 13.8 | 67.9
